Test results taken from PubChem BioAssay AID1275 (Emory University Molecular Libraries Screening Center, 2008).
Values joined by “and” are separate entries in the source; they are usually repeats but may differ in a detail not shown here. Equal values may be shown once. Active and inactive are the calls of the source. The rule behind the calls is not given here.

Target: Neutrophil cytosol factor 1 (Homo sapiens) (UniProt P14598)
Experiment: blockers of ligand binding to p47phox – biochemical, NADPH oxidase regulatory subunit, fluorescence polarization, dose response (AID 1275)
Details: p47phox binding inhibition

Sequence of Neutrophil cytosol factor 1 (Homo sapiens) (P14598 whole entry, looked up): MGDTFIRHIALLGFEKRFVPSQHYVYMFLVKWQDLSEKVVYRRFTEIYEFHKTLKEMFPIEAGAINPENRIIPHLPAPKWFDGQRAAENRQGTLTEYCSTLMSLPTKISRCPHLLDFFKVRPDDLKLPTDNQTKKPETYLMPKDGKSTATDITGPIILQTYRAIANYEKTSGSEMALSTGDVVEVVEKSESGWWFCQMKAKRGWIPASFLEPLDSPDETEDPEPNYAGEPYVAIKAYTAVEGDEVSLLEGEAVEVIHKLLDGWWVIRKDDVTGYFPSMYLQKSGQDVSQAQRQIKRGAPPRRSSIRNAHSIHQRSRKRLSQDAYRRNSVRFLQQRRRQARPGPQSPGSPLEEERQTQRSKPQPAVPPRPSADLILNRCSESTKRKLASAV

O=C(N=Nc1c(O)n(C2OC(=O)c3ccccc32)c2ccccc12)c1ccco1 (stereo not given)
IC50: > 50 µM (inactive)

Clc1ccc(/C=N/Nc2nc(Cl)nc3ccccc23)cc1
IC50: > 50 µM (inactive)

CCN(CC)c1ccc(/C=N/c2sc3c(c2C#N)C2CCN3CC2)c(O)c1
IC50: 6.96 µM

CC1CCCCN1C(=O)C12CCC(C)(/C(=N/O)C1)C2(C)C (stereo not given)
IC50: > 50 µM (inactive)

CN(C)c1ccnc2c[cH-]cc12.[Fe].c1ccc(-[c-]2[c-](-c3ccccc3)[c-](-c3ccccc3)[c-](-c3ccccc3)[c-]2-c2ccccc2)cc1 (stereo not given)
IC50: 13.9 µM and 2.73 µM

N#CC1=C(N)OC2=C(CN(Cc3ccccc3)C/C2=C\c2cccnc2)C1c1cccnc1 (stereo not given)
IC50: 3.5 µM

CSc1sc(C)cc1C1C(C#N)=C(N)N(c2cccnc2)C2=C1C(=O)CCC2 (stereo not given)
IC50: > 50 µM (inactive)

CN(C)CC(C)(C)CN=Cc1c(O)[nH]c2ccccc12
IC50: > 50 µM (inactive)

CC(=O)N1C(=O)C2(C(C#N)=C(N)Oc3n[nH]c(-c4ccccn4)c32)c2ccccc21 (stereo not given)
IC50: > 50 µM (inactive)

CC(C)Cc1ccc(/C(=N/O)C(=O)O)s1
IC50: > 50 µM (inactive)

Oc1[nH]c(=S)sc1/C=C1\C(c2ccccc2)=Nc2ccccc21
IC50: inactive

COCc1cc(C)nc(N/N=C/c2ccc(-c3ccc(Cl)cc3[N+](=O)[O-])o2)c1C#N
IC50: > 50 µM (inactive)

Cc1ccc(NC(=O)Cn2c(O)c(N=NC(=O)c3cc4ccccc4cc3O)c3ccccc32)cc1
IC50: > 50 µM (inactive)

O=[N+]([O-])c1ccc(N=Cc2c(O)ccc3ccccc23)cc1
IC50: 4.58 µM

Cn1c(O)c(/C=C2\N=c3ccccc3=C2CCNC(=S)NC2CC2)c(=O)n(C)c1=O
IC50: 14.1 µM

CCN=C(Nc1ccc2c(c1)OCO2)SC1CC(=O)N(c2ccccc2F)C1=O (stereo not given)
IC50: > 50 µM (inactive)

Cc1ccc(/C(CSc2nccn2-c2ncc(C(F)(F)F)cc2Cl)=N\O)cc1
IC50: > 50 µM (inactive)

CCOc1ccc2c(c1)C(c1cccs1)=NNC(c1cccnc1)=N2
IC50: > 50 µM (inactive)

Cc1cccc(N=Nc2c(C)c(C#N)c(O)[nH]c2=O)c1
IC50: > 50 µM (inactive)

O=[N+]([O-])c1ccc(N/N=C\c2cccn2-c2ccccc2)nc1
IC50: > 50 µM (inactive)

N=C1CCC(=N)c2c1c(O)c1ccccc1c2O
IC50: 0.68 µM

Cc1ccc(C(=O)C2=C(O)C(=O)N(Cc3ccccc3)C2c2cccnc2)o1 (stereo not given)
IC50: > 50 µM (inactive)

CCOC(=O)c1ccc(N2C(=O)CC(Nc3ccc(O)cc3)C2=O)cc1 (stereo not given)
IC50: 23.7 µM

O=c1oc2ccccc2c(O)c1/C=C1\C=Nc2ccccc21
IC50: > 50 µM (inactive)

O=C1CCCC(O)=C1N=Nc1ccc(C(=O)O)cc1
IC50: > 50 µM (inactive)

C/C(N)=C(/C#N)C(=O)CSc1nnc(-c2ccc3c(c2)OCO3)o1
IC50: > 50 µM (inactive)

C[c-]1[c-](C)[c-](C)[c-](C)[c-]1C.[Fe].c1cc2nccc(N3CCCC3)[c-]2c1 (stereo not given)
IC50: > 50 µM (inactive)

COc1ccc(C2C(C(=O)c3ccccc3)=C(C)Nc3nc4ccccc4n32)cc1OC (stereo not given)
IC50: > 50 µM (inactive)

COc1ccc(C2C(C#N)=C(N)Oc3cc4c(cc32)OCO4)cc1 (stereo not given)
IC50: > 50 µM (inactive)

COc1ccc(N=C2O/C(=C/c3sc(=S)n(CC4CCCO4)c3O)N=C2C#N)cc1 (stereo not given)
IC50: 16 µM

CCOC(=O)C(=CNc1ccc(Oc2cccnc2)nc1)C(=O)OCC
IC50: > 50 µM (inactive)

CCc1cc2c(=O)nc3n(c2s1)Cc1ccccc1/C3=C(/O)c1ccccc1Cl
IC50: > 50 µM (inactive)

Cc1cccc(NC(=O)Cn2c(O)c(N=NC(=O)c3ccccc3O)c3ccccc32)c1
IC50: > 50 µM (inactive)

CCOc1ccc(C2CC(c3c(O)n(C)c(=O)n(C)c3=O)=NN2)cc1 (stereo not given)
IC50: > 50 µM (inactive)

Cc1ccc(C(NC(=O)N2CCOCC2)=C(Cl)Cl)cc1F
IC50: > 50 µM (inactive)

COc1ccc(N2C(=O)CNC2=S)cc1
IC50: > 50 µM (inactive)

Cc1cc2c(C)nc(N/N=C/c3ccc([N+](=O)[O-])cc3)nc2o1
IC50: > 50 µM (inactive)

CC1(C)CC(=O)C2=C(C1)Nc1cc3c(cc1C2c1ccc2c(c1)OCO2)OCO3 (stereo not given)
IC50: > 50 µM (inactive)

Cc1ccccc1NC(=O)Cn1c(O)c(N=NC(=O)c2ccccc2O)c2ccccc21
IC50: > 50 µM (inactive)

O=c1cnnc(N/N=C/c2c[nH]c3ccccc23)[nH]1
IC50: > 50 µM (inactive)

O=c1[nH]c(=S)[nH]c(O)c1N=Nc1ccc(-c2ccccc2)cc1[N+](=O)[O-]
IC50: 8.05 µM

N#Cc1ccc(N/N=C/c2cn(-c3ccccc3)nc2-c2ccccc2)c([N+](=O)[O-])c1
IC50: > 50 µM (inactive)

COc1ccc(-c2cnnc(N/N=C/c3ccc(-c4ccc([N+](=O)[O-])cc4)o3)n2)cc1
IC50: > 50 µM (inactive)

CC1=C(C#N)c2nc(N)c(C#N)c(C)c2/C1=C\c1ccc(-c2ccccc2C(=O)O)o1
IC50: 26.9 µM

COC(=O)c1cc(C(=O)OC)cc(N2C(=O)CC(NNC(=O)c3ccc(C)cc3)C2=O)c1 (stereo not given)
IC50: > 50 µM (inactive)

CCOc1ccc(-n2c(SCC(=O)Nc3ccc(Br)cc3)nc3n[nH]c(C)c3c2=N)cc1
IC50: > 50 µM (inactive)

COc1cc(/C=N/NC(=O)c2ccc(CN3c4cccc5cccc(c45)S3(=O)=O)cc2)cc(OC)c1O
IC50: > 50 µM (inactive)

O=C1OCC=C1NNC(=O)c1cccnc1
IC50: > 50 µM (inactive)

CCOC(=O)C1=C(c2ccccc2)NC(N)=NC1c1ccc(OCc2ccc(Cl)cc2)c(OC)c1 (stereo not given)
IC50: 4.14 µM

O=C1Nc2ccccc2/C1=N/N=C/c1ccc(-c2ccc([N+](=O)[O-])cc2)o1
IC50: > 50 µM (inactive)

Cc1nc2ccccc2n2c(O)c(CC(=O)O)cc12
IC50: inactive

CCOc1ccc(N/C=C/C(=O)c2ccccc2)c([N+](=O)[O-])c1
IC50: > 50 µM (inactive)

O=c1[nH]c(O)c(/C=C2/C=CC(c3cc(Cl)ccc3Cl)=N2)c(=O)[nH]1
IC50: > 50 µM (inactive)

Cc1ccc(-n2c(O)c(/C=N/Nc3ccccc3)c(=O)[nH]c2=O)cc1C
IC50: > 50 µM (inactive)

CC(C)N1CC2=C(OC(N)=C(C#N)C2c2cccnc2)/C(=C/c2cccnc2)C1 (stereo not given)
IC50: inactive

C=CCNC(=S)N1CCN(CCN=CC2=C(O)CC(c3ccco3)CC2=O)CC1 (stereo not given)
IC50: > 50 µM (inactive)

Cc1ccc(/C=N/Nc2ccnc3cc(Cl)ccc23)c(C)c1
IC50: > 50 µM (inactive)

O=C(N=Nc1c(O)[nH]c2ccc(Cl)cc12)c1cc(-c2cccs2)nc2ccccc12
IC50: > 50 µM (inactive)

O=C(N=Nc1c(O)[nH]c2ccc(Br)cc12)c1cc(-c2cccs2)nc2ccccc12
IC50: > 50 µM (inactive)

CCOC(=O)C1=C(O)c2ccccc2C(=O)/C1=C\c1ccc(CC)cc1
IC50: > 50 µM (inactive)

CCOC(=O)C1=C(c2ccccc2)NC(N)=NC1c1ccc(OCc2ccc(C(=O)OC)cc2)cc1 (stereo not given)
IC50: 6.96 µM

CC1=NN(c2ccccc2)C(=O)/C1=C/C=C/c1ccc(N(C)C)cc1
IC50: > 50 µM (inactive)

O=C(N=Nc1c(O)n(Cc2ccccc2)c2ccccc12)c1cc2ccccc2cc1O
IC50: > 50 µM (inactive)

Nc1cc(Cl)ccc1N1C(=O)CCC1=O
IC50: > 50 µM (inactive)

N#CC(=C=[N-])c1nc2ccccc2nc1-[n+]1cccc(NC(=O)c2cccs2)c1
IC50: 14.8 µM

O=C(Cn1c(O)c(/C=C2\C=Nc3ccc(Br)cc32)sc1=O)N1CCCC1
IC50: > 50 µM (inactive)

COc1nc(N/N=C/c2ccc(-c3cccc([N+](=O)[O-])c3)o2)nc(N2CCOCC2)n1
IC50: > 50 µM (inactive)

N#CC(=C=[N-])c1nc2ccccc2nc1-[n+]1cccc(NC(=O)c2ccccc2)c1
IC50: > 50 µM (inactive) and 24.2 µM

CCOC(=O)C1=C(O)CSC1=Nc1ccc(Cl)cc1
IC50: > 50 µM (inactive)

C/C(=N\Nc1ccc(S(N)(=O)=O)cc1[N+](=O)[O-])c1ccc2c(c1)OCO2
IC50: > 50 µM (inactive)

CCOC(=O)C1=C(COc2ccc(C)cc2)NC(=O)NC1c1cc(C)ccc1C (stereo not given)
IC50: > 50 µM (inactive)

CCOC(=O)/C(C)=C1\NC(C)(C)Cc2ccccc21
IC50: > 50 µM (inactive)

C(=N\Nc1nc(Nc2ccccc2)nc(N2CCCCC2)n1)/c1ccco1
IC50: > 50 µM (inactive)

COc1ccc(-c2cn[nH]c2-c2ccc(OCc3ccc([N+](=O)[O-])cc3)cc2O)cc1
IC50: > 50 µM (inactive)

CCOc1ccc(N/C=C/C(=O)c2ccc(C)cc2)c([N+](=O)[O-])c1
IC50: > 50 µM (inactive)
